Laboratory results: PubChem BioAssay AID330 (DTP/NCI, 2004)
Several values for one entry are separate records, joined by “and”; a condition that tells them apart may be missing. Equal values may be shown once. Toxic doses and inconclusive results are not listed.

System: P388 leukemia ip, CD2F1 mice, survival T/C
Assay: NCI In Vivo Anticancer Drug Screen. Data for tumor model P388 Leukemia (intraperitoneal) in CD2F1 (CDF1) mice
Conditions: endpoint: median survival time, higher = longer survival
Procedure, shortened: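 Mice carrying the transplanted tumor received test compound or vehicle. Survival was recorded in each group, and the value is the treated-group measurement divided by that of the vehicle-treated control group.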

[1] = dose: 100.0 mg/kg/injection, schedule: Q04DX002 (ip), vehicle: saline with Tween-80
[2] = dose: 200.0 mg/kg/injection, schedule: Q04DX002 (ip), vehicle: saline with Tween-80
[3] = dose: 400.0 mg/kg/injection, schedule: Q04DX002 (ip), vehicle: saline with Tween-80
[4] = dose: 60.0 mg/kg/injection, schedule: Q01DX005 (ip), vehicle: saline with Tween-80
[5] = dose: 240.0 mg/kg/injection, schedule: Q01DX005 (ip), vehicle: saline with Tween-80

## C/C=C1\CN2CCc3c([nH]c4ccccc34)C2CC1C1=CN2c3ccccc3C34CCN5CC6=CCOC1C(C6CC53)C24 (stereo unspecified)
dose: 2.38 mg/kg/injection, schedule: Q01DX005 (ip), vehicle: Klucel (hydroxypropylcellulose) (HPC)
  T/C: 95 % of control
dose: 4.75 mg/kg/injection, schedule: Q01DX005 (ip), vehicle: Klucel (hydroxypropylcellulose) (HPC)
  T/C: 97 % of control
dose: 9.5 mg/kg/injection, schedule: Q01DX005 (ip), vehicle: Klucel (hydroxypropylcellulose) (HPC)
  T/C: 88 % of control

## COc1ccc(/C=C/C2=C(C(=O)O)CCCO2)cc1
[1]
  T/C: 103 % of control
[2]
  T/C: 100 % of control
[3]
  T/C: 90 % of control

## O=C1CCC(N2C(=O)c3ccccc3C2=O)C(=O)N1 (stereo unspecified)
dose: 50.0 mg/kg/injection, schedule: Q01DX009 (ip), vehicle: saline with Tween-80
  T/C: 100 % of control
dose: 100.0 mg/kg/injection, schedule: Q01DX009 (ip), vehicle: saline with Tween-80
  T/C: 92 % of control

## CCOC(=O)C(=CNc1cccc2cccnc12)C(=O)OCC
[1]
  T/C: 97 % of control
[2]
  T/C: 99 % of control
[3]
  T/C: 99 % of control

## COC(=O)C1=C(C(=O)OC)P2(C)(C)N(C)C(=S)N2C1(c1ccccc1)c1ccccc1
dose: 50.0 mg/kg/injection, schedule: Q01DX005 (ip), vehicle: Klucel (hydroxypropylcellulose) (HPC)
  T/C: 102 % of control
dose: 100.0 mg/kg/injection, schedule: Q01DX005 (ip), vehicle: Klucel (hydroxypropylcellulose) (HPC)
  T/C: 94 % of control
dose: 200.0 mg/kg/injection, schedule: Q01DX005 (ip), vehicle: Klucel (hydroxypropylcellulose) (HPC)
  T/C: 94 % of control

## N=c1c2ncn(C3OC(CO)C(O)C3O)c2ncn1N (stereo unspecified)
dose: 25.0 mg/kg/injection, schedule: Q01DX005 (ip), vehicle: water
  T/C: 110 % of control
dose: 50.0 mg/kg/injection, schedule: Q01DX005 (ip), vehicle: water
  T/C: 107 % of control
dose: 100.0 mg/kg/injection, schedule: Q01DX005 (ip), vehicle: water
  T/C: 105 % of control
dose: 200.0 mg/kg/injection, schedule: Q01DX005 (ip), vehicle: water
  T/C: 98 % of control
dose: 400.0 mg/kg/injection, schedule: Q01DX005 (ip), vehicle: water
  T/C: 108 % of control

## [Cl][Sn][Cl].c1cnc2c(c1)ccc1cccnc12
dose: 100.0 mg/kg/injection, schedule: Q04DX003 (ip), vehicle: saline with Tween-80
  T/C: 97 % of control
dose: 200.0 mg/kg/injection, schedule: Q04DX003 (ip), vehicle: saline with Tween-80
  T/C: 112 % of control

## CCCCCCCC(Nc1nncs1)Nc1nncs1
dose: 15.0 mg/kg/injection, schedule: Q01DX005 (ip), vehicle: saline with Tween-80
  T/C: 101 % of control
dose: 30.0 mg/kg/injection, schedule: Q01DX005 (ip), vehicle: saline with Tween-80
  T/C: 92 % of control
[4]
  T/C: 87 % of control and 90 % of control
[5]
  T/C: 91 % of control

## c1ccc2c(c1)ncn2Sn1cnc2ccccc21
dose: 17.5 mg/kg/injection, schedule: Q01DX005 (ip), vehicle: Klucel (hydroxypropylcellulose) (HPC)
  T/C: 102 % of control
dose: 35.0 mg/kg/injection, schedule: Q01DX005 (ip), vehicle: Klucel (hydroxypropylcellulose) (HPC)
  T/C: 118 % of control
dose: 70.0 mg/kg/injection, schedule: Q01DX005 (ip), vehicle: Klucel (hydroxypropylcellulose) (HPC)
  T/C: 104 % of control

## CCC[CH2][Sn]([CH2]CCC)([CH2]CCC)[CH2]S(=O)(=O)O
dose: 6.25 mg/kg/injection, schedule: Q01DX009 (ip), vehicle: saline
  T/C: 108 % of control
dose: 12.5 mg/kg/injection, schedule: Q01DX009 (ip), vehicle: saline
  T/C: 119 % of control
dose: 100.0 mg/kg/injection, schedule: Q01DX009 (ip), vehicle: saline
  T/C: 116 % of control

## CC(=O)OC1CC23COC(=O)C4OC45CCO/C(=C/C/C=C\C(=O)OC4C[C@@H](OC2C=C1C)[C@@]1(CO1)[C@]43C)C5O (stereo partly specified)
dose: 0.32 mg/kg/injection, schedule: Q01DX009 (ip), vehicle: Klucel (hydroxypropylcellulose) (HPC)
  T/C: 100 % of control
dose: 125.0 micrograms/kg/injection, schedule: Q01DX009 (ip), vehicle: Klucel (hydroxypropylcellulose) (HPC)
  T/C: 110 % of control
dose: 250.0 micrograms/kg/injection, schedule: Q01DX009 (ip), vehicle: Klucel (hydroxypropylcellulose) (HPC)
  T/C: 118 % of control
dose: 1000.0 micrograms/kg/injection, schedule: Q01DX009 (ip), vehicle: Klucel (hydroxypropylcellulose) (HPC)
  T/C: 152 % of control

## CCCCCCCCCCCCCCCCOc1cccc(/C(=N/NS(C)(=O)=O)N2CCCCC2)c1
dose: 50.0 mg/kg/injection, schedule: Q01DX009 (ip), vehicle: Klucel (hydroxypropylcellulose) (HPC)
  T/C: 89 % of control
dose: 100.0 mg/kg/injection, schedule: Q01DX009 (ip), vehicle: Klucel (hydroxypropylcellulose) (HPC)
  T/C: 92 % of control
dose: 200.0 mg/kg/injection, schedule: Q01DX009 (ip), vehicle: Klucel (hydroxypropylcellulose) (HPC)
  T/C: 91 % of control

## COc1ccc(Nc2nc3c(s2)c(C)c(O)c2ccccc23)cc1
[4]
  T/C: 95 % of control
dose: 120.0 mg/kg/injection, schedule: Q01DX005 (ip), vehicle: saline with Tween-80
  T/C: 103 % of control
[5]
  T/C: 112 % of control
